{"source": "ChEMBL document CHEMBL6182856", "about": "“Novel one-/two-photon excited carbazole/quinolinium photosensitizers manifest nanomolar and hypoxia-resistant tumor photodynamic therapy by accelerating apoptosis, ferroptosis, and autophagy” (Eur J Med Chem, 2025)", "key": {"[1]": {"experiment": "Photosensitizing ability of the compound in methanol assessed as time duration of singlet oxygen production measured upon irradiation by DPBF based assay", "format": "functional"}, "[2]": {"experiment": "Photosensitizing ability of the compound assessed as superoxide radical production measured upon irradiation by electron spin resonance analysis", "format": "functional"}, "[3]": {"experiment": "Photosensitizing ability of the compound assessed as hydroxyl radical production measured upon irradiation by electron spin resonance analysis", "format": "functional"}, "[4]": {"experiment": "Photostability of the compound measured after 30 mins of light irradiation by UV absorption based analysis", "format": "physicochemical", "settings": "0.5 h"}, "[5]": {"experiment": "Phototoxicity against human A549 cells assessed as inhibition of cell growth incubated for 24 hrs measured under normoxia conditions and after one-photon excitation upon irradiation with light at 520 nm, 200 mW/cm2 for 10 mins by MTT assay", "format": "functional, cell-based", "settings": "A549, light or radiation study"}, "[6]": {"experiment": "Phototoxicity against human A549 cells assessed as inhibition of cell growth at 1.56 to 400 nM incubated for 24 hrs measured under normoxia conditions and after one-photon excitation upon irradiation with light at 520 nm, 200 mW/cm2 for 10 mins by MTT assay relative to control", "format": "functional", "settings": "dose 1.56-400 nM"}, "A549 [7]": {"test_system": "A549", "experiment": "Cytotoxicity against human A549 cells assessed as inhibition of cell growth incubated for 24 hrs measured under normoxia conditions by MTT assay", "format": "functional, cell-based", "settings": "A549, 24 h"}, "HT-29": {"test_system": "HT-29", "experiment": "Cytotoxicity against human HT-29 cells assessed as inhibition of cell growth incubated for 24 hrs measured under normoxia conditions by MTT assay", "format": "functional, cell-based", "settings": "HT-29, 24 h"}, "4T1 [8]": {"test_system": "4T1", "experiment": "Cytotoxicity against mouse 4T1 cells assessed as inhibition of cell growth incubated for 24 hrs measured under normoxia conditions by MTT assay", "format": "functional, cell-based", "settings": "4T1, 24 h"}, "[9]": {"experiment": "Cytotoxicity against human HFL1 cells assessed as inhibition of cell growth incubated for 24 hrs by MTT assay", "format": "toxicity, cell-based"}, "[10]": {"experiment": "Phototherapeutic index, ratio of IC50 for cytotoxicity against human A549 cells measured under normoxia conditions to IC50 for phototoxicity against human A549 cells measured under normoxia conditions and after one-photon excitation upon irradiation with light at 520 nm, 200 mW/cm2 for 10 mins", "format": "functional"}, "4T1 [11]": {"test_system": "4T1", "experiment": "Phototherapeutic index, ratio of IC50 for cytotoxicity against mouse 4T1 cells measured under normoxia conditions to IC50 for phototoxicity against mouse 4T1 cells measured under normoxia conditions and after one-photon excitation upon irradiation with light at 520 nm, 200 mW/cm2 for 10 mins", "format": "functional"}, "[12]": {"experiment": "Phototoxicity against human A549 cells assessed as inhibition of cell growth incubated for 24 hrs measured under hypoxia conditions and after one-photon excitation upon irradiation with light at 520 nm, 200 mW/cm2 for 10 mins by MTT assay", "format": "functional, cell-based", "settings": "A549, light or radiation study"}, "[13]": {"experiment": "Phototoxicity against human A549 cells assessed as inhibition of cell growth incubated for 24 hrs measured under hypoxia conditions and after two-photon excitation upon irradiation with light at 808 nm, 200 mW/cm2 for 10 mins by MTT assay", "format": "functional, cell-based", "settings": "A549, light or radiation study"}, "A549 [14]": {"test_system": "A549", "experiment": "Induction of apoptosis in human A549 cells assessed as increase in Bax expression measured upon light irradiation by western blot analysis relative to control", "format": "functional"}, "A549 [15]": {"test_system": "A549", "experiment": "Induction of ROS generation in human A549 cells assessed as intracellular ROS level measured under normoxia conditions by DCFH-DA staining based fluorescence analysis", "format": "functional, cell-based"}, "A549 [16]": {"test_system": "A549", "experiment": "Induction of ROS generation in human A549 cells assessed as intracellular superoxide level measured under normoxia conditions by DHE probe based fluorescence analysis", "format": "functional, cell-based"}, "A549 [17]": {"test_system": "A549", "experiment": "Induction of ROS generation in human A549 cells assessed as intracellular singlet oxygen level measured under normoxia conditions by SOSG probe based fluorescence analysis", "format": "functional, cell-based"}, "A549 [18]": {"test_system": "A549", "experiment": "Photosensitizing ability of the compound in human A549 cells assessed as increase in intracellular ROS generation by measuring increase in fluorescence intensity measured upon light irradiation under normoxia conditions by DCFH-DA staining based fluorescence analysis relative to FLI in cells without irradiation", "format": "functional"}, "A549 [19]": {"test_system": "A549", "experiment": "Photosensitizing ability of the compound in human A549 cells assessed as increase in intracellular superoxide generation by measuring increase in fluorescence intensity measured upon light irradiation under normoxia conditions by DHE probe based fluorescence analysis relative to FLI in cells without irradiation", "format": "functional"}, "A549 [20]": {"test_system": "A549", "experiment": "Photosensitizing ability of the compound in human A549 cells assessed as increase in intracellular singlet oxygen generation by measuring increase in fluorescence intensity measured upon light irradiation under normoxia conditions by SOSG probe based fluorescence analysis relative to FLI in cells without irradiation", "format": "functional"}, "A549 [21]": {"test_system": "A549", "experiment": "Induction of apoptosis in human A549 cells assessed as early apoptotic cells measured under dark conditions by AnnexinV-FITC/PI staining based flow cytometric analysis (reference value: 0.12%)", "format": "functional"}, "A549 [22]": {"test_system": "A549", "experiment": "Induction of apoptosis in human A549 cells assessed as necrotic cells measured upon light irradiation by AnnexinV-FITC/PI staining based flow cytometric analysis (reference value: 1.04%)", "format": "functional"}, "A549 [23]": {"test_system": "A549", "experiment": "Induction of apoptosis in human A549 cells assessed as reduction in Bcl-2 expression measured upon light irradiation by western blot analysis relative to control", "format": "functional"}, "A549 [24]": {"test_system": "A549", "experiment": "Induction of apoptosis in human A549 cells assessed as increase in cleaved caspase-3 expression measured upon light irradiation by western blot analysis relative to control", "format": "functional"}, "A549 [25]": {"test_system": "A549", "experiment": "Induction of DNA damage in human A549 cells assessed as increase in gammaH2AX expression measured upon light irradiation by western blot analysis relative to control", "format": "functional"}, "A549 [26]": {"test_system": "A549", "experiment": "Induction of ferroptosis in human A549 cells assessed as increase in lipid peroxidation by measuring decrease in GSH level measured upon irradiation relative to control", "format": "functional"}, "A549 [27]": {"test_system": "A549", "experiment": "Induction of ferroptosis in human A549 cells assessed as increase in lipid peroxidation by measuring increase in MDA level measured upon irradiation relative to control", "format": "functional"}, "A549 [28]": {"test_system": "A549", "experiment": "Induction of ferroptosis in human A549 cells assessed as increase in lipid peroxidation by measuring increase in green-to-red fluorescence ratio measured upon irradiation by BODIPY 581/591C11 probe based confocal imaging analysis relative to control", "format": "functional"}, "A549 [29]": {"test_system": "A549", "experiment": "Induction of autophagy in human A549 cells assessed as large circular vesicles engulfing small particles measured upon light irradiation by transmission electron microscopy", "format": "functional, cell-based"}, "A549 [30]": {"test_system": "A549", "experiment": "Induction of autophagy in human A549 cells assessed as increase in active membrane bound form, […] expression measured upon light irradiation by western blot analysis relative to control", "format": "functional"}, "A549 [31]": {"test_system": "A549", "experiment": "In vivo photodynamic therapy based antitumor activity against human A549 cells xenografted in mouse assessed as tumor growth inhibition administered intratumorally on day 0 and 7 and measured on day 15", "format": "functional", "settings": "route it(Intratumoral); time 15 day"}, "[32]": {"experiment": "Toxicity against mouse xenografted with human A549 cells assessed as changes in body weight administered intratumorally followed by exposure to light on day 0 and 7 and measured for 15 days", "settings": "in vivo, other, 360 h, route it(Intratumoral), time 15 day"}, "[33]": {"experiment": "Photosensitizing ability of the compound in methanol assessed as singlet oxygen production by measuring quantum yield upon irradiation by DPBF based assay relative to KNKQ", "format": "functional"}, "[34]": {"experiment": "Photosensitizing ability of the compound in methanol assessed as singlet oxygen production by measuring quantum yield upon irradiation by DPBF based assay relative to KAKQ", "format": "functional"}, "[35]": {"experiment": "Photosensitizing ability of the compound assessed as superoxide radical production upon irradiation by DHE probe based assay relative to KNKQ", "format": "functional"}, "[36]": {"experiment": "Photosensitizing ability of the compound assessed as hydroxyl radical production upon irradiation by HPF probe based assay relative to control", "format": "functional"}}, "note": "Calls of active or inactive are those of the source. The calls are words filed in the database; no cut-off is given here.", "data": [{"smiles": "CCn1c2ccc(/C=C/c3cc[n+](C)c4ccccc34)cc2c2cc(N(c3ccccc3)c3ccccc3)ccc21.[I-]", "values": [{"measurement": "TIME", "setting": "[1]", "result": "< 0.133", "unit": "h"}, {"measurement": "Activity", "setting": "[2]", "result": "Active"}, {"measurement": "Activity", "setting": "[3]", "result": "Active"}, {"measurement": "Stability", "setting": "[4]", "result": "Stable"}, {"measurement": "IC50", "setting": "[5]", "result": 27, "unit": "nM"}, {"measurement": "inhibition (INH)", "setting": "[6]", "result": 24.4, "unit": "%"}, {"measurement": "IC50", "setting": "A549 [7]", "result": 1470, "unit": "nM"}, {"measurement": "IC50", "setting": "HT-29", "result": 1480, "unit": "nM"}, {"measurement": "IC50", "setting": "4T1 [8]", "result": 1080, "unit": "nM"}, {"measurement": "IC50 at 24 h", "setting": "[9]", "result": 8910, "unit": "nM"}, {"measurement": "Ratio IC50", "setting": "[10]", "result": 54}, {"measurement": "Ratio IC50", "setting": "4T1 [11]", "result": 21}, {"measurement": "IC50", "setting": "[12]", "result": 43, "unit": "nM"}, {"measurement": "IC50", "setting": "[13]", "result": 200, "unit": "nM"}, {"measurement": "fold change (FC)", "setting": "A549 [14]", "result": 5}, {"measurement": "Activity", "setting": "A549 [15]", "result": "inactive"}, {"measurement": "Activity", "setting": "A549 [16]", "result": "inactive"}, {"measurement": "Activity", "setting": "A549 [17]", "result": "inactive"}, {"measurement": "fold change (FC)", "setting": "A549 [18]", "result": 4}, {"measurement": "fold change (FC)", "setting": "A549 [19]", "result": 4}, {"measurement": "fold change (FC)", "setting": "A549 [20]", "result": 4}, {"measurement": "Activity", "setting": "A549 [21]", "result": 18.1, "unit": "%"}, {"measurement": "Activity", "setting": "A549 [22]", "result": 2.56, "unit": "%"}, {"measurement": "fold change (FC)", "setting": "A549 [23]", "result": "~3"}, {"measurement": "fold change (FC)", "setting": "A549 [24]", "result": 3}, {"measurement": "fold change (FC)", "setting": "A549 [25]", "result": 4}, {"measurement": "fold change (FC)", "setting": "A549 [26]", "result": 100}, {"measurement": "fold change (FC)", "setting": "A549 [27]", "result": 10}, {"measurement": "fold change (FC)", "setting": "A549 [28]", "result": 24}, {"measurement": "Activity", "setting": "A549 [29]", "result": "Active"}, {"measurement": "fold change (FC)", "setting": "A549 [30]", "result": 2}, {"measurement": "TGI", "setting": "A549 [31]", "result": 70.6, "unit": "%"}, {"measurement": "Activity", "setting": "[32]", "result": "Non-toxic"}, {"measurement": "fold change (FC)", "setting": "[33]", "result": 3}, {"measurement": "fold change (FC)", "setting": "[34]", "result": 3}, {"measurement": "fold change (FC)", "setting": "[35]", "result": 8}, {"measurement": "fold change (FC)", "setting": "[36]", "result": 60}]}]}
